Laboratory results from patent publication US6849649B2, “N-phenpropylcyclopentyl-substituted glutaramide derivatives as inhibitors of neutral endopeptidase” (Pfizer Inc., priority 2001, dated 2005).
Where a name gives a salt, the structure may show the parent alone. Read-outs that look alike come from different tables or passages of the source.

What was measured:
NEP from canine kidney = molecular target: T1, NEP from canine kidney (Canis lupus familiaris, UniProt A0A8I3PBM8); test: IC50 against NEP (canine kidney); type: biochemical
T1 construct: determined using NEP from canine kidney; from tissue; host or cells: canine kidney
T1 sequence (A0A8I3PBM8 1-749): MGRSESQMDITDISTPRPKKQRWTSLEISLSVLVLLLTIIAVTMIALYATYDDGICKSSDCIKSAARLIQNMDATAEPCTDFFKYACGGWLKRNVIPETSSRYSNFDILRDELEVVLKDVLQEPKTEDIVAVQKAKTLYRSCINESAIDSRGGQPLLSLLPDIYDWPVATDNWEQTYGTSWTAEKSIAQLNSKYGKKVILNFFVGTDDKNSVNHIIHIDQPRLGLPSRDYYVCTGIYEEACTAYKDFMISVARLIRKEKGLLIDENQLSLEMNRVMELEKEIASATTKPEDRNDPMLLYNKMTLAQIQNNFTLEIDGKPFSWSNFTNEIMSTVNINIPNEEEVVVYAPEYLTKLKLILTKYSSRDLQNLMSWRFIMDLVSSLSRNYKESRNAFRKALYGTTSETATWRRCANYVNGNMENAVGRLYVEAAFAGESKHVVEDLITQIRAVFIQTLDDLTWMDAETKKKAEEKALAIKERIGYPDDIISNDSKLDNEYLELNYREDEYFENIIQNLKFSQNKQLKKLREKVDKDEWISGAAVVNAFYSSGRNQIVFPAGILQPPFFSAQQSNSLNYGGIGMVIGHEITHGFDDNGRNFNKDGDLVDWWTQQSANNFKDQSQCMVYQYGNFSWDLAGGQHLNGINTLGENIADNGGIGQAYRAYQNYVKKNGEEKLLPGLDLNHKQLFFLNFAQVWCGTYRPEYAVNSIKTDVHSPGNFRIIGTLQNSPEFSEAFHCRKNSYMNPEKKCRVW
Method: The IC50 values presented below were determined using NEP from canine kidney.

[1] = NEP from canine kidney, read-out: IC50 against NEP

Row | melting point | IC50 (NEP from canine kidney; [1]) | IC50 (NEP from canine kidney) | SMILES
1 | 214 to 216 °C |  |  | COCCC(CC1(C(=O)NCCCc2ccc(OC)cc2)CCCC1)C(=O)O (centres unmarked) (as salt: sodium) [Example 1, 4-Methoxy-2-{[1-({[3-(4-methoxyphenyl)propyl]amino}carbonyl)cyclopentyl]-methyl}butanoic acid]
2 |  | 22 nM |  | COCCC(CC1(C(=O)NC(C)COc2ccccc2Cl)CCCC1)C(=O)O (centres unmarked) [Example 3]
3 |  |  | 4 nM | COCCC(CC1(C(=O)NCCCc2ccc(F)cc2)CCCC1)C(=O)O (centres unmarked) [Example 4, 2-{[1-({[3-(4-fluorophenyl)propyl]amino}carbonyl)cyclopentyl]methyl}-4-methoxybutanoic acid]
4 | 94.5 to 97 °C | 3 nM |  | O=C(O)CCC1(C(=O)NCCCc2ccc3c(c2)CCO3)CCCC1 [Example 21]
5 |  | 47 nM |  | O=C(O)CCC1(C(=O)NCCCc2cccc3ccccc23)CCCC1 [Example 33]
6 |  | 29 nM |  | COCC[C@H](CC1(C(=O)NCCCc2ccc3c(c2)OCCO3)CCCC1)C(=O)O [Example 43]
7 |  | 9 nM |  | CC(CCNC(=O)C1(CCC(=O)O)CCCC1)c1ccc2c(c1)CCO2 (centres unmarked) [Example 51]
